Species: Rattus norvegicus
Assay: Open TG-GATES - Regimen: Single
Assay type: toxicity, organism-based, Sprague-Dawley
Parameters: regimen Single, gender Male, age 6 weeks
Conditions: in vivo, po, 0 mg/kg, route gavage, dose level Control; for APTT / Bas / Eos / Fbg / Hb / Ht / Lym / MCH / MCHC / MCV / Mono / Neu / PT / Plat / RBC / Ret / WBC: tissue Blood; for KIDNEY_L / KIDNEY_R / KIDNEY_TOTAL: tissue Kidney; for LIVER: tissue Liver; for A/G / ALP / ALT / AST / BUN / CRE / Ca / Cl / DBIL / GLC / IP / K / LDH / Na / PL / RALB / TBIL / TC / TG / TP / gamma-GTP: tissue Plasma

With `O=c1ccc2ccccc2o1` [COUMARIN] the TERMINAL_BW (9 h) was 180 g, the APTT (9 h) was 16 s and the Bas (9 h) was 0%. The Eos (9 h) was 0.8%, the Fbg (9 h) was 206.8 mg/dL and the Hb (9 h) was 13.1 g/dL. For the same molecule, the Ht (9 h) was 39.4%, the Lym (9 h) was 79.2% and the MCH (9 h) was 21.9 pg. It also gave an MCHC (9 h) of 33.3%, an MCV (9 h) of 65.9 fL and a Mono (9 h) of 6.4%. The Neu (9 h) was 14%, the PT (9 h) was 12.4 s and the Plat (9 h) was 117.4 x10_4/uL. For the same molecule, the RBC (9 h) was 598.6 x10_4/ul, the Ret (9 h) was 9.2% and the WBC (9 h) was 106.8 x10_2/uL. It also gave a KIDNEY_L (9 h) of 0.9 g, a KIDNEY_R (9 h) of 0.9 g and a KIDNEY_TOTAL (9 h) of 1.7 g. It also gave an LIVER (9 h) of 7.4 g, an A/G (9 h) of 2.1 and an ALP (9 h) of 975.8 IU/L. The ALT (9 h) was 31.2 IU/L, the AST (9 h) was 59.4 IU/L and the BUN (9 h) was 12.4 mg/dL. It also gave a CRE (9 h) of 0.5 mg/dL, a Ca (9 h) of 10.7 mg/dL and a Cl (9 h) of 106 meq/L. For the same molecule, the DBIL (9 h) was 0.022 mg/dL, the GLC (9 h) was 190.8 mg/dL and the IP (9 h) was 11 mg/dL. For the same molecule, the K (9 h) was 5.1 meq/L, the LDH (9 h) was 82.2 IU/L and the Na (9 h) was 138.2 meq/L. For the same molecule, the PL (9 h) was 139 mg/dL, the RALB (9 h) was 3.7 g/dL and the TBIL (9 h) was 0.3 mg/dL. The TC (9 h) was 79.4 mg/dL, the TG (9 h) was 36.6 mg/dL and the TP (9 h) was 5.5 g/dL. It also gave a gamma-GTP (9 h) of 1.6 IU/L, a TERMINAL_BW (24 h) of 191.8 g and an APTT (24 h) of 16.1 s. It also gave a Bas (24 h) of 0%, an Eos (24 h) of 0.8% and a Fbg (24 h) of 205.4 mg/dL. For the same molecule, the Hb (24 h) was 13.2 g/dL, the Ht (24 h) was 39.3% and the Lym (24 h) was 77.2%. For the same molecule, the MCH (24 h) was 21.8 pg, the MCHC (24 h) was 33.4% and the MCV (24 h) was 65.1 fL. It also gave a Mono (24 h) of 8.8%, a Neu (24 h) of 13.6% and a PT (24 h) of 12.5 s. The Plat (24 h) was 106.5 x10_4/uL, the RBC (24 h) was 604.2 x10_4/ul and the Ret (24 h) was 8.3%. For the same molecule, the WBC (24 h) was 132 x10_2/uL, the KIDNEY_L (24 h) was 0.9 g and the KIDNEY_R (24 h) was 0.9 g. The KIDNEY_TOTAL (24 h) was 1.8 g, the LIVER (24 h) was 9 g and the A/G (24 h) was 1.9. For the same molecule, the ALP (24 h) was 985.2 IU/L, the ALT (24 h) was 37 IU/L and the AST (24 h) was 64.4 IU/L. The BUN (24 h) was 16.2 mg/dL, the CRE (24 h) was 0.5 mg/dL and the Ca (24 h) was 10.8 mg/dL. The Cl (24 h) was 105.4 meq/L, the DBIL (24 h) was 0 mg/dL and the GLC (24 h) was 184.4 mg/dL. It also gave an IP (24 h) of 7.9 mg/dL, a K (24 h) of 5.5 meq/L and an LDH (24 h) of 92.6 IU/L. For the same molecule, the Na (24 h) was 137.8 meq/L, the PL (24 h) was 138 mg/dL and the RALB (24 h) was 3.7 g/dL. For the same molecule, the TBIL (24 h) was 0.3 mg/dL, the TC (24 h) was 76 mg/dL and the TG (24 h) was 82.8 mg/dL. The TP (24 h) was 5.6 g/dL and the gamma-GTP (24 h) was 1.2 IU/L.
